Legend:
[1] = target: T1, complement protein C2 (Homo sapiens, UniProt P06681); assay: Inactivation rate of complement protein C2; format: biochemical; details: for kinact/KI: Table II, pH 7.5, 25° C, [I] 0.19 to 1.25 mM, read-out: kobs/[I]
T1 sequence (P06681 21-752): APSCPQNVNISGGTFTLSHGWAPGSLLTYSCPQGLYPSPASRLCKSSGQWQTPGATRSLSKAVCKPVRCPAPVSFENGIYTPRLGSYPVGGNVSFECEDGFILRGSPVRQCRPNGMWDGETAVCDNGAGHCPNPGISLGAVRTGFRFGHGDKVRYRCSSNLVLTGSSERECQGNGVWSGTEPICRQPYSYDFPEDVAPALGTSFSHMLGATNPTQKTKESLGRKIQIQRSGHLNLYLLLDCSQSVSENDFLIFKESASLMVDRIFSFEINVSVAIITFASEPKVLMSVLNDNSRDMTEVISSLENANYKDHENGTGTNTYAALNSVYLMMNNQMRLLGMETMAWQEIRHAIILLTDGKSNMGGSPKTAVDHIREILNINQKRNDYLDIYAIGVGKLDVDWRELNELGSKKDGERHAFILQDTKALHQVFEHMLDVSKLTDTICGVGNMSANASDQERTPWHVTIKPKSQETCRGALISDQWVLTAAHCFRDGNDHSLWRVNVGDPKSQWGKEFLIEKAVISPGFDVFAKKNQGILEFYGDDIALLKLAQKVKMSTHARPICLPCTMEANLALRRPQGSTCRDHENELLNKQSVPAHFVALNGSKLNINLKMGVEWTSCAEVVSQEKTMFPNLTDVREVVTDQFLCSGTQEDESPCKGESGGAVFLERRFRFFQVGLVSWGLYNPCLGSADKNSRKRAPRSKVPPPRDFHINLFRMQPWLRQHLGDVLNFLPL
Protocol: (§1) Inactivation rates of serine proteases by substituted isocoumarins were measured by the incubation method. An aliquot of inhibitor (25 or 50 μl) in Me2 SO was added to a buffered enzyme solution (0.01-2.3 μM) to initiate the inactivation. Aliquots (50 μl) were withdrawn at various intervals and the residual enzymatic activity was measured. Me2 SO concentration in the reaction mixture was 8-12% (v/v). 0.1 Hepes, 0.01M CaCl2, pH 7.5 buffer was utilized for trypsin and coagulation enzymes. 0.1M Hepes, 0.5M NaCl, pH 7.5 was utilized for other serine proteases. The inhibitor concentrations are shown in all the tables. Peptide thioesters or peptide nitroanilides with appropriate sequence were used as substrates for various serine proteases. All peptide thioester hydrolysis rates were measured with assay mixtures containing 4,4'-dithiodipyridine (ε324 =19800M^-1 cm^-1; Grasetti & Murray, Arch. Biochem. Biophys. 119, pp 41-49 (1967)). Peptide 4-nitroanilide nitroanilide hydrolysis was measured at 410 nm (ε410 =8800M^-1 cm^-1; Erlanger et al., Arch. Biochem. Biophys. 95, pp 271-278 (1961)). First order inactivation rate constant (kobs) were obtained from plots of ln (vt /vo) vs time, and the correlation coefficients were greater than 0.98.
(§2) ^a Conditions were 0.1M Hepes, 0.5M NaCl, pH 7.5, 8-10% Me2 SO
(§3) and 25° C. Inactivation rates were measured by incubation method.
(§4) Enzyme concentrations were as follows: protein D, 1-9 μM; C2, 0.7-1
(§5) μM; B, 1.8 μM; Bb, 0.3-0.8 μM; Cl^- s, 0.07 μM; Cl^-

[2] = target: complement protein B (Homo sapiens, UniProt P00751); assay: Inactivation rate of complement protein B; format: biochemical; details: for kinact/KI: Table II, pH 7.5, 25° C, [I] 0.19 to 1.25 mM, read-out: kobs/[I]
Protocol: as §1, §2, §3, §4, §5

[3] = target: T2, C2a (Homo sapiens, UniProt P06681); assay: Inactivation rate of complement fragment C2a; format: biochemical; details: Table II; pH 7.5, 25° C; [I] 0.19 to 1.25 mM; read-out: kobs/[I]
T2 construct: active fragments C2a, Bb
Protocol: as §1, §2
and 25° C. Inactivation rates were measured by incubation method. […]

[4] = target: T3, human factor VIIa (Homo sapiens, UniProt P08709); assay: Inactivation rate of human factor VIIa; format: biochemical; details: Table I; pH 7.5, 25° C; [I] 5 to 44 μM; read-out: kobs/[I]
T3 construct: human factor VIIa
T3 sequence (P08709 213-466 limits assumed): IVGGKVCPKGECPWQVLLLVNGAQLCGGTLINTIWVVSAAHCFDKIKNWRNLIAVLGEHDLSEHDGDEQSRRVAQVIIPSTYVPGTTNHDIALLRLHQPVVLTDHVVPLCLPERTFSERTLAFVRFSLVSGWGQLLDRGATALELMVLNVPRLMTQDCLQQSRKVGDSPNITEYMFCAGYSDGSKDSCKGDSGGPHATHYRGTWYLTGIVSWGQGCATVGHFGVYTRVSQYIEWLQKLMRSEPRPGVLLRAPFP
T3 sequence (P08709 61-212 partner limits assumed): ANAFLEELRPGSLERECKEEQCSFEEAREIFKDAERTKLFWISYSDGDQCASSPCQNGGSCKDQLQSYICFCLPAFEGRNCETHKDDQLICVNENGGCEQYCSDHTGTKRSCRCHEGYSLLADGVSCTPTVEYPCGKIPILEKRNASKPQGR

[5] = Spontaneous hydrolysis in human plasma; format: in vitro ADME; details: for half-life: human plasma, read-out: t1/2 for spontaneous hydrolysis
[6] = target: T4, human thrombin (Homo sapiens, UniProt P00734); assay: Inactivation rate of human thrombin; format: biochemical; details: Table VIII; pH 7.5, 25° C; [I] 1.2-54 μM; read-out: kobs/[I]
T4 construct: human thrombin
Procedure, shortened: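 Incubation method: enzyme (0.01-2.3 μM) mixed with inhibitor in 0.1M Hepes, 0.01M CaCl2, pH 7.5, 8% Me2SO, 25° C; residual activity sampled over time with peptide thioester or 4-nitroanilide substrates. kobs from ln(vt/vo) vs time plots.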

[7] = Spontaneous hydrolysis in rabbit plasma; format: in vitro ADME; details: for half-life: rabbit plasma, read-out: t1/2 for spontaneous hydrolysis
[8] = Activated partial thromboplastin time (APTT), rabbit plasma
[9] = target: T5, rat mast cell protease II (Rattus norvegicus, UniProt P00770); assay: Inactivation rate of rat mast cell protease II; format: biochemical; details: Table V; pH 7.5, 25° C; [I] 0.007 to 0.013 mM; read-out: kobs/[I]
T5 construct: rat mast cell protease II; from tissue; host or cells: rat mast cells (by the enzyme's name only)
Protocol: as §1
(§6) ^a Inactivation rates were measured at 0.1M Hepes, 0.5M NaCl, pH 7.5,
(§7) 8-12% Me2 SO and 25° C. by incubation method. An aliquot of […]

[10] = target: T6, human skin chymase (Homo sapiens, UniProt P23946); assay: Inactivation rate of human skin chymase; format: biochemical; details: Table V; pH 7.5, 25° C; [I] 0.41 to 0.53 mM; read-out: kobs/[I]
T6 construct: human skin chymase; from tissue; host or cells: human skin
Protocol: as §1, §6, §7

[11] = target: T7, human lung chymase (Homo sapiens, UniProt P23946); assay: Inactivation rate of human lung chymase; format: biochemical; details: Table V; pH 7.5, 25° C; [I] 0.38 mM; read-out: kobs/[I]
T7 construct: human lung chymase; from tissue; host or cells: human lung
Protocol: as §1, §6, §7

[12] = tested on: pig plasma; assay: Prothrombin time (PT), pig plasma
[13] = tested on: pig plasma; assay: Activated partial thromboplastin time (APTT), pig plasma; details: [I] 16 μM

Sequence of complement protein B (P00751 26-764): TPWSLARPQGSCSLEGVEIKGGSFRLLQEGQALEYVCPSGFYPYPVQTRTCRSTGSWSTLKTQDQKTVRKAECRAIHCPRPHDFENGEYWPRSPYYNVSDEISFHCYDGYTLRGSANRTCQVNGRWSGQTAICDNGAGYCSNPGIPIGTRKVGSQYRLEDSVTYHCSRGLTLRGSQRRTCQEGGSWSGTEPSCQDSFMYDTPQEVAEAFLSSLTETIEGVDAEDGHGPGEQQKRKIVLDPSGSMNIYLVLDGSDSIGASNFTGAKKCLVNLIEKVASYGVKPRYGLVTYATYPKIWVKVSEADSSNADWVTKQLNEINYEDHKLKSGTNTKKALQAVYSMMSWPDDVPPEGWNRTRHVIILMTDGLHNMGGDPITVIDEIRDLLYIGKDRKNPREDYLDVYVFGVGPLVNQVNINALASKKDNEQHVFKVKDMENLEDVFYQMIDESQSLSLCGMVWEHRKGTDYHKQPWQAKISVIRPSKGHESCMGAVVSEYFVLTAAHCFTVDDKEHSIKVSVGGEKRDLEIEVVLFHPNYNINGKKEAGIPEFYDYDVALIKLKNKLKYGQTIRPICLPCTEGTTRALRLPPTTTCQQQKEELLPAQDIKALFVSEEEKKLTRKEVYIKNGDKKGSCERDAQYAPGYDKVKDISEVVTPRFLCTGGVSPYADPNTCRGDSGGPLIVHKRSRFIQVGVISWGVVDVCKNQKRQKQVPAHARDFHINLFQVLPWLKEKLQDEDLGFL
T5 sequence (P00770 21-247): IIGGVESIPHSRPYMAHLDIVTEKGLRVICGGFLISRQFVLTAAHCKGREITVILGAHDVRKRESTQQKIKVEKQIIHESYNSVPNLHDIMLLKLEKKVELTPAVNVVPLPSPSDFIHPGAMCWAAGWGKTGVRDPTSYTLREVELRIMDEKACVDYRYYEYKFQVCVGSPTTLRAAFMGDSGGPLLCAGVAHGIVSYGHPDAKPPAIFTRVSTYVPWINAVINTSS
T6 sequence (P23946 22-247): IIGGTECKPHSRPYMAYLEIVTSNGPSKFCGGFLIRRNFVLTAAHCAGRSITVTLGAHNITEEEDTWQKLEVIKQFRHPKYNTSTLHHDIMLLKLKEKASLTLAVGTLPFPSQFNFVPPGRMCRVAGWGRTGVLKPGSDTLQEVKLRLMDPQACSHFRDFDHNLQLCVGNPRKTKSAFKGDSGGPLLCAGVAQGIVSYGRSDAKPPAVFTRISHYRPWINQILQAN
T7 sequence (P23946 22-247): as above

O=c1oc(Cl)c(Cl)c2ccccc12 [3,4-dichloroisocoumarin, reference compound]
inhibition of C2 (in words) [1]: do not show any inhibition
inhibition of protein B (in words) [2]: do not show any inhibition

N=C(N)SCCOc1oc(=O)c2ccccc2c1Cl [3-(2-isothiureidoethoxy)-4-chloroisocoumarin]
kinact/KI [1]: 1.5 M⁻¹ s⁻¹
kinact/KI [3]: 1.4 M⁻¹ s⁻¹
kinact/KI [2]: 13 M⁻¹ s⁻¹

N=C(N)SCCCOc1oc(=O)c2ccccc2c1Cl [3-(3-isothiureidopropoxy)-4-chloroisocoumarin]
kinact/KI [4]: 450 M⁻¹ s⁻¹
kinact/KI [1]: 0.5 M⁻¹ s⁻¹
kinact/KI [3]: 0.8 M⁻¹ s⁻¹
kinact/KI [2]: 0.4 M⁻¹ s⁻¹
half-life [5]: 0.5 min

N=C(N)SCCCOc1oc(=O)c2cc(N)ccc2c1Cl [7-amino-4-chloro-3-(3-isothiureidopropoxy)isocoumarin]
kinact/KI [4]: 430 M⁻¹ s⁻¹
kinact/KI [6]: 760 M⁻¹ s⁻¹
stability in human plasma (in words) [5]: fairly stable
half-life [5]: 165 min
stability in rabbit plasma (in words) [7]: fairly stable
half-life [7]: 140 min
APTT ([8]; [I] 33 μM): 68.6 s

CCOc1oc(=O)c2cc(NC(=N)N)ccc2c1Cl [7-guanidino-3-ethoxy-4-chloroisocoumarin, 7-guanidino-4-chloro-3-ethoxyisocoumarin]
kinact/KI [4]: 2200 M⁻¹ s⁻¹
kinact/KI [2]: 167 M⁻¹ s⁻¹
kinact/KI [9]: 1100 M⁻¹ s⁻¹
kinact/KI [10]: 33 M⁻¹ s⁻¹
kinact/KI [11]: 540 M⁻¹ s⁻¹
half-life [5]: 8.2 min
half-life [7]: 4.2 min
APTT ([8]; [I] 31 μM): 60.5 s

N=C(N)Nc1ccc2c(Cl)c(OCCc3ccccc3)oc(=O)c2c1 [7-guanidino-4-chloro-3-(2-phenylethoxy)isocoumarin]
kinact/KI [9]: 4100 M⁻¹ s⁻¹
kinact/KI [10]: 22 M⁻¹ s⁻¹
half-life [5]: 4.5 min

COc1oc(=O)c2cc(NC(=N)N)ccc2c1Cl [7-guanidino-4-chloro-3-methoxyisocoumarin]
kinact/KI [2]: 285 M⁻¹ s⁻¹
half-life [5]: 6.7 min

N=C(N)SCCOc1oc(=O)c2cc(NC(=O)Nc3ccccc3)ccc2c1Cl [PhNHCONH-CiTEtOIC, 7-(phenylcarbamoylamino)-4-chloro-3-(2-isothiureidoethoxy)isocoumarin]
kinact/KI [6]: 22400 M⁻¹ s⁻¹
PT ([12]; [I] 16 μM): 28.5 s
PT ([12]; [I] 32 μM): 58.3 s
APTT [13]: > 120 s
